Results: PubChem BioAssay AID602166 (The Scripps Research Institute Molecular Screening Center, 2012)
The source made the active and inactive calls. The rule behind the calls is not given here.

Target: Nuclear receptor coactivator 3 (Homo sapiens) (UniProt Q9Y6Q9)
Assay: SRC3 coactivator transcriptional activity inhibitors, dose response, cell-based, luminescence (AID 602166);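 note: potency for reduction of SRC3 reporter signal so compounds are inhibitors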
Conditions: SRC3 luciferase reporter cell assay

Sequence of Nuclear receptor coactivator 3 (Homo sapiens) (Q9Y6Q9 whole entry, looked up): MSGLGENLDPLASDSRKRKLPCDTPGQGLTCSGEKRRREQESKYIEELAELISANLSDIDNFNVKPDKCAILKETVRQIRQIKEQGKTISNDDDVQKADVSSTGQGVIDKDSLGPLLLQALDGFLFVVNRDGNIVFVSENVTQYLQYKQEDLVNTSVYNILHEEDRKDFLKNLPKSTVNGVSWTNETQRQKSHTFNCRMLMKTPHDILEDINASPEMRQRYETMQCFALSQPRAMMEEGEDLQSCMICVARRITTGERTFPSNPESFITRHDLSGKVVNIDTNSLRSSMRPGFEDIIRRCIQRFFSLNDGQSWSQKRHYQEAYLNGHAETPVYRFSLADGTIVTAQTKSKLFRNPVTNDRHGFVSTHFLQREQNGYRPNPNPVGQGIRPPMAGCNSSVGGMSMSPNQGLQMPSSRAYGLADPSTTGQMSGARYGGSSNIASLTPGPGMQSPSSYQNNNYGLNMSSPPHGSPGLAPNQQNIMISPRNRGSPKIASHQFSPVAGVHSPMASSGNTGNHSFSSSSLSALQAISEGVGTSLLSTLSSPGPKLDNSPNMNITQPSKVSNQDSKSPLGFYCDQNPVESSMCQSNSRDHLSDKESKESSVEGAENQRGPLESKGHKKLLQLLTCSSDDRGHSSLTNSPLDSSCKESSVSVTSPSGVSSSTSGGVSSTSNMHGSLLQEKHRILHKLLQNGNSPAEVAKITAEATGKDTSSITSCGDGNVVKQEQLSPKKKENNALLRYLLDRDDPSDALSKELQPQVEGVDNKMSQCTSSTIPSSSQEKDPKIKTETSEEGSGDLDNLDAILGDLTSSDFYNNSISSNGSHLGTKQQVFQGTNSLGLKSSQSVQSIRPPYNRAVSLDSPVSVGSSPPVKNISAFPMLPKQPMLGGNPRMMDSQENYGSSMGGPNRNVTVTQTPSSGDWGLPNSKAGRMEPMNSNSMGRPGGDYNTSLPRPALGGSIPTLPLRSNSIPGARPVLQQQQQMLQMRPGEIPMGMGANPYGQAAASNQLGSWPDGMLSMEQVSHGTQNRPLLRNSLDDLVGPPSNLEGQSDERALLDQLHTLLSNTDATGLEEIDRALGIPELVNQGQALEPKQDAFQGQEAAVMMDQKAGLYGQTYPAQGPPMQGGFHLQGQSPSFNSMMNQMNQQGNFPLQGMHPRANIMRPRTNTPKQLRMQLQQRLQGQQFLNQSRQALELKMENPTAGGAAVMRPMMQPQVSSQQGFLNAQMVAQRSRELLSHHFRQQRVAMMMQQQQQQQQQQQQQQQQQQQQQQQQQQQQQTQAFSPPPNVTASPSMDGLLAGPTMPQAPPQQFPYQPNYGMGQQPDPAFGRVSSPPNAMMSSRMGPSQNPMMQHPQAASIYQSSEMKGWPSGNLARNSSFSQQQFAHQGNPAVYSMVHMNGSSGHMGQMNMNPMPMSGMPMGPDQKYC

Row | Structure (SMILES) | IC50
1 | Cc1nc([N+](=O)[O-])c(Sc2nc3ccccc3n2C)n1Cc1ccccc1 | inactive
2 | Cc1cc(C(=O)CN2C(=O)c3ccccc3S2(=O)=O)c(C)n1C(C)C | inactive
3 | CC(=O)Nc1ccc(SCC(=O)c2cc(C)n(-c3ccccc3F)c2C)cc1 | > 35.9 µM (inactive)
4 | Cc1ccc2occ(/C=N/NC(=O)[C@@H](N)Cc3ccccc3)c(=O)c2c1 | 9.86 µM
5 | Nc1nc(=S)c2ncn([C@@H]3O[C@H](CO)[C@@H](O)[C@H]3O)c2[nH]1 | 2.55 µM
6 | CN(C)c1ccc(CNC(=O)CCNS(=O)(=O)c2cc(Br)cnc2N)cc1 | 4.34 µM
7 | COc1ccc(CCNC(=O)c2nnn(-c3ccc4c(c3)OCCO4)c2N)cc1OC | > 35.9 µM (inactive)
8 | O=c1[nH]c2ccccc2n1C1CCN(C(c2cccc3ccccc23)c2nnnn2-c2ccc3c(c2)OCCO3)CC1 (stereo not given) | inactive
9 | CC(=O)Nc1ccc(SCC(=O)c2cc(C)n(-c3ccccc3)c2C)cc1 | > 35.9 µM (inactive)
10 | CCC(=O)c1ccc(O)c(CC=C(C)C)c1 | 8.77 µM
11 | NC(=S)NN=Cc1nccc2c(N)cccc12 | 2.42 µM
12 | COc1cc2[nH]c3c(Cl)ncnc3c2cc1OC | > 35.9 µM (inactive)
13 | Cc1ccc(C(=O)O/N=C(\N)c2ccccn2)c(Cl)c1 | > 35.9 µM (inactive)
14 | O=c1[nH]c2ccccc2n1C1CCN(C(c2ccccc2)c2nnnn2-c2ccc3c(c2)OCCO3)CC1 (stereo not given) | inactive
15 | COc1cccc2c1C(=N)c1c(O)c3c(c(O)c1C2=O)CC(O)(C(C)=O)CC3OC1CC(N)C(O)C(C)O1 (stereo not given) | > 35.9 µM (inactive)
16 | Brc1ccc2ncc3ccccc3c2c1 | 8.02 µM
17 | CCOc1ccc(CC(=O)Nc2ccc(NC(=O)c3ccco3)cc2)cc1OCC | 4.24 µM
18 | Cc1ncc(CO)c(/C=N/NC(=O)c2cc3c(s2)CCCC3)c1O | 7.15 µM
19 | CCCCC(=O)NC(c1ccc(Cl)cc1Cl)c1ccc2cccnc2c1O (stereo not given) | 4.71 µM
20 | CNc1ncnc(Sc2nc(N)nc3nc[nH]c23)c1[N+](=O)[O-] | 4.17 µM
21 | CCOC(=O)CC(=O)CSc1nccc(-c2cccnc2)n1 | inactive
22 | O=C(CC1CS(=O)(=O)CC1CC(=O)Nc1ccc2c(c1)OCCO2)Nc1ccc2c(c1)OCCO2 (stereo not given) | > 35.9 µM (inactive)

Row | Structure (SMILES) | IC50
23 | COc1cccc(CNc2ncnc3ccc(-c4c(C)noc4C)cc23)c1 | inactive
24 | C=CC[n+]1c(-c2ccc(C)cc2)csc1Nc1ccc(NC(C)=O)cc1 | > 35.9 µM (inactive)
25 | Cc1cc(C(=O)COC(=O)C2=COCCO2)c(C)n1-c1ccccc1 | > 35.9 µM (inactive)
26 | CCc1nc(N)nc(N)c1-c1ccc(Cl)c([N+](=O)[O-])c1 | 4.28 µM
27 | COc1ccc(C(C(=O)NC2CCCCC2)N(C(=O)CCl)c2ccc(Cl)cc2)cc1 (stereo not given) | 3.7 µM
28 | Cc1cccc(CN2CCN(C(=O)CCl)CC2)c1 | > 35.9 µM (inactive)
29 | Cc1ccc(OCC(=O)c2cc(C)n(-c3ccccc3)c2C)c([N+](=O)[O-])n1 | inactive
30 | COc1ccc(OC)c(Cc2cnc3nc(N)nc(N)c3c2C)c1 | 7.45 µM
31 | Cc1c(CC(=O)NCCCC(=O)O)c(=O)oc2cc3c(cc12)CCC(C)(C)O3 | 7.52 µM
32 | c1csc(Cc2nn3c(-c4ccncc4)nnc3s2)c1 | 8.11 µM
33 | Cc1nc2c(-c3ccc(Cl)cc3)cnn2c(N)c1-c1ccc(F)cc1 | > 35.9 µM (inactive)
34 | O=[N+]([O-])c1ccc(N(CCO)CCO)c2c1no[n+]2[O-] | 7.24 µM
35 | O=C(NC1CCCCC1)C(c1cccnc1)N(C(=O)CCl)c1cccc(Cl)c1 (stereo not given) | 3.1 µM
36 | C=CCOn1c(C)c(C(C)=O)c2c3nonc3ccc21 | 4.12 µM
37 | COC(=O)c1cc(S(=O)(=O)NCCc2ccc(Cl)cc2)c[nH]1 | 5.72 µM
38 | CCc1ccc(/C=C2\SC(=S)N(CCCC(=O)NCCCN3CCOCC3)C2=O)cc1 | inactive
39 | COc1ccc(/C=C2\CC/C(=C\c3ccc(OC)c(OC)c3)C2=O)cc1OC | 6.33 µM
40 | CCOC(=O)C(C(C)=O)c1c(Br)c(O)c(O)c2c(C(=O)c3ccc(C)cc3)coc12 (stereo not given) | 4.11 µM
41 | Cc1cc(/C=C2\Cc3ccccc3C2=O)c(C)n1-c1ccccc1 | > 35.9 µM (inactive)
42 | CC(=O)N1CCN(c2ncnc3ccccc23)CC1 | 8.94 µM
43 | COc1ccccc1N(C(=O)CCl)c1cn(C(C)=O)c2ccccc12 | 8.1 µM
44 | Cc1ccc(C(=O)Nc2cnc3ccccc3c2)cc1 | inactive

Row | Structure (SMILES) | IC50
45 | CCn1c2ccccc2c2cnc(N=CN(C)C)c(C#N)c21 | 4.94 µM
46 | CC(=O)OCCN1c2ccccc2Sc2cnccc21 | 5.67 µM
47 | O=C(N/N=C\c1ccc([N+](=O)[O-])o1)C1COc2ccccc2O1 (stereo not given) | > 35.9 µM (inactive)
48 | Cc1sc2ncnc(N3CCC(C(=O)Nc4ccccc4C(C)(C)C)CC3)c2c1C | 5.75 µM
49 | O=C(COC(=O)c1ccc[nH]c1=O)Nc1ccc(N2CCCCC2)cc1 | 2.9 µM
50 | O=C(Nc1nc2ccccc2s1)C1c2ccccc2Oc2ccccc21 | 7.97 µM
51 | CC(C)(C)n1ncc2c(=O)n(CC(=O)OCc3ccccc3)cnc21 | > 35.9 µM (inactive)
52 | Nc1ccc(-c2cc3ccccc3oc2=O)cc1 | 8.26 µM
53 | COc1ccc(/C=C2/SC(=S)N(CCC(=O)O)C2=O)cc1 | > 35.9 µM (inactive)
54 | CC[C@@]1(O)C(=O)OCc2c1cc1n(c2=O)Cc2cc3c(NC(=O)CN)cccc3nc2-1 | 1.75 µM
55 | Cc1cc2nccc(-c3ccncc3)n2n1 | inactive
56 | COc1cccc(F)c1C(C[N+](=O)[O-])c1c(N)n(C)c(=O)n(C)c1=O (stereo not given) | inactive
57 | Cc1ccc(N=Nc2ccc3ccccc3c2O)cc1 | > 35.9 µM (inactive)
58 | Nc1nc2c(nnn2C2CC(O)C(CO)O2)c(=O)[nH]1 (stereo not given) | 7.87 µM
59 | COc1cc(/C=C(/C(=O)c2cccs2)c2nc3ccccc3[nH]2)cc(OC)c1O | > 35.9 µM (inactive)
60 | CCCCN1C=CC(=C2C(=O)c3ccccc3C2=O)C=C1 | 4.47 µM
61 | COc1ccc(Nc2ccncc2[N+](=O)[O-])cc1 | 5.32 µM
62 | NC(=O)c1cc(Sc2ccccc2)nc2ccccc12 | 3.53 µM
63 | Cc1ccc(NC(=O)c2cc(C)n(-c3ccccc3)c2C)cc1 | > 35.9 µM (inactive)
64 | c1cc2[nH]snc2c2nc(C3CC3)nc12 | 1.62 µM
65 | Cc1cc(-c2nnc(SCC(=O)Nc3ccccc3C(F)(F)F)o2)c(C)n1-c1ccccc1 | > 35.9 µM (inactive)
66 | O=C(Nc1nc2cc3c(cc2s1)OCCO3)C1=COCCO1 | inactive

Row | Structure (SMILES) | IC50
67 | C(=N\Nc1ccc2ccccc2n1)/c1ccc2c(c1)OCCO2 | inactive
68 | CCOc1ccc(/C=C2\SC(=S)N(CCCC(=O)NCCCN3CCOCC3)C2=O)cc1 | inactive
69 | CCOc1cc(/C=C2\CCC/C(=C\c3cc(Cl)c(O)c(OCC)c3)C2=O)cc(Cl)c1O | > 35.8 µM (inactive)
70 | CN1CCN(c2ccc(NC(=O)N3CCc4ccccc43)cc2)CC1 | > 35.9 µM (inactive)
71 | O=C(CCl)NC(Cc1ccccc1)c1ccccc1 (stereo not given) | 5.58 µM
72 | C(=NNc1ccc2ccccc2n1)c1ccccn1 | inactive
73 | O=C(NCCCn1ccnc1)c1ccc(N2CCCCCC2)c([N+](=O)[O-])c1 | inactive
74 | O=C(NCc1ccccc1)c1c(Cl)nc(Cl)c(Cl)c1Cl | inactive
75 | COc1ccc(-c2nsc3c(N4CCCCC4)ncnc23)cc1 | > 35.9 µM (inactive)
76 | C=CCOc1ccc(/C=C2\SC(=S)N(CCC(=O)O)C2=O)cc1 | inactive
77 | COc1cccc(/C=N/Nc2ccc([N+](=O)[O-])cn2)c1O | inactive
78 | COCCNC(=O)c1cc(-c2ccccn2)nc2ccc(S(=O)(=O)N3CCC(C)CC3)cc12 | > 35.9 µM (inactive)
79 | COC(CN(C(=O)CCl)C(C(=O)NC1CCCCC1)c1ccccc1C)OC (stereo not given) | 6.18 µM
80 | C=CCn1c(O)c(C(C)=NCc2cc(OC)cc(OC)c2)c(=O)[nH]c1=O | 7.73 µM
81 | CC1CCN(C2=NC(=O)/C(=C/c3ccccc3F)S2)CC1 | > 35.9 µM (inactive)
82 | c1ccc(-c2nnc(-c3ccccn3)nc2NC2CCCCC2)cc1 | 3.94 µM
83 | CC(=O)NC(c1cc(Cl)c2cccnc2c1O)C(C)C (stereo not given) | 4.54 µM
84 | COc1ccc2[nH]c(=O)c(CN(CCN3CCCC3)C(=O)Nc3ccccc3Cl)cc2c1 | inactive
85 | O=C(Nc1cccnc1)c1ccc(C(=O)Nc2cccnc2)cc1 | > 35.9 µM (inactive)
86 | C#CC(=O)N(c1cc(OC)ccc1OC)C(C(=O)NC1CCCC1)c1cccs1 (stereo not given) | > 35.9 µM (inactive)
87 | O=S(=O)(/C(=C\c1ccc(C(F)(F)F)cc1)c1nc2ccccc2[nH]1)c1ccccc1 | > 12 µM (inactive)
88 | COc1cc2oc(=O)cc(-c3ccc(-c4ccc(CO)cc4)cc3)c2c(OC)c1OC | 4.57 µM

Row | Structure (SMILES) | IC50
89 | COc1cccc(-c2nnc3sc(C4CCCCC4)nn23)c1 | 1.73 µM
90 | CCC(=O)N1CCN(c2ccnc3cc(Cl)ccc23)CC1 | 8.04 µM
91 | CCn1nc(/C=C/c2ccccc2)nc2c(=O)n(C)c(=O)nc1-2 | > 35.9 µM (inactive)
92 | COC(=O)c1cccc2c1-c1ccccc1/C2=N/O | 2.35 µM
93 | CCOc1cc(C(N)=O)cc(Br)c1OC | 5.79 µM
94 | COc1ccc(-c2cn[nH]c2-c2ccc(OC)cc2O)cc1 | 2.89 µM
95 | Oc1ccc(C=NNc2ccccn2)c(O)c1 | inactive
96 | Clc1ccc(-c2csc3ncnc(NCCN4CCOCC4)c23)cc1 | 8.15 µM
97 | CCOC(=O)C(=CNc1ccc(NC2=NCC(C)S2)cc1)C(=O)OCC (stereo not given) | 3.32 µM
98 | C=CS(=O)(=O)N(Cc1ccc(Cl)c(Cl)c1)C[C@@H](O)CO | 6.97 µM
99 | CCCS(=O)(=O)Nc1ccc(Nc2c3ccccc3nc3ccccc23)c(OC)c1 | 0.605 µM
100 | O=C(CCCc1nc(-c2ccccc2Cl)no1)NC1CCCC1 | 8.14 µM
101 | O=c1[nH]cnc2c1nnn2C1OC(CO)C(O)C1O (stereo not given) | 4.66 µM
102 | NC(=S)N/N=C1\CCOc2ccc(Cl)cc21 | 6.9 µM
103 | Cn1cnc([N+](=O)[O-])c1Sc1nc(N)nc2c1ncn2C1OC(CO)C(O)C1O (stereo not given) | 6.37 µM
104 | Cc1ccc2nc(-c3ccncc3)c(NC3CCCC3)n2c1 | inactive
105 | O=C(NC(NC(=S)N1CCOCC1)C(Cl)(Cl)Cl)c1ccc(Cl)cc1 (stereo not given) | > 35.9 µM (inactive)
106 | CC(C)(C)C(=O)Nc1ccc(N=Nc2ccccc2)cc1 | > 35.9 µM (inactive)
107 | COc1ccc(OC)c(N/C=C/C(=O)c2ccccc2)c1 | inactive
108 | O=c1[nH]c2ccccc2n1C1CCN(C(c2ccccc2)c2nnnn2Cc2ccccc2)CC1 (stereo not given) | inactive
109 | CCCc1c(C)nc2ccccc2c1SCCC#N | 7.93 µM
110 | CC(C)N(c1ccccc1)c1ccc(NC(=O)CCl)cc1 | inactive
